Values quoted from earlier work as cited in patent US20120252695A1 (Janssen R&D Ireland, priority 2009, published 2012).

System: HCV
Conditions: carriers of two copies of the advantageous IL28B variant; multi-ethnic population

Substance: IFN-α
- patients who cleared the virus and remained virus-free 24 weeks post-treatment: approximately 80%
